The values below come from patent US9623000B2, “Compositions and methods for treating inflammatory disorders” (priority 2008, dated 2017).

Common to all, as to type: in vivo, Mice/Balb/c
The test system of experiment [1] is croton oil induced ear edema. The experiment is described as follows: Croton oil induced ear swelling, 3 hours post sensitization (Example 1). The settings on record: Hydrocortisone 600 nmol/ear; for % of Ear Thickness Inhibition (inhibition of ear swelling/edema vs Vehicle) / ear swelling (difference between the inflamed and intact ear thickness): 3 hours post croton oil; for % of Ear Thickness Inhibition (inhibition of ear swelling/edema vs Vehicle) / Mean Group Ear Swelling (mm) 3 Hours Post Croton Oil MEAN: topical 1 hour prior to and 2 hours post sensitization; for % of Ear Thickness Inhibition (inhibition of ear swelling/edema vs Vehicle): 2 mg/ml or 5 mg/ml (PEA, CBD); for Mean Group Ear Swelling (mm) 3 Hours Post Croton Oil MEAN: Amitriptyline, Topiramate, Moclobimide 2 mg/ml; for Mean Group Ear Swelling (mm) 3 Hours Post Croton Oil MEAN / ear swelling (difference between the inflamed and intact ear thickness): PEA, CBD 5 mg/ml; for ear swelling (difference between the inflamed and intact ear thickness): MEAN±SEM. The protocol: A study was undertaken in order to evaluate the effect of topical preparations of various test items (TI) and TI combined with Croton oil on ear swelling. Ear thickness was measured before croton oil induced ear swelling and 3 hours post ear edema induction. The various TIs were applied topically 1 hour prior to ear edema sensitization and 2 hours post ear edema sensitization. The difference in ear thickness of the intact ear was subtracted from the ear thickness of the inflamed ear. This value is defined as “ear swelling”.
Species/Strain: Mice/Balb/c
Prior to sensitization animals were anesthetized. Ear thickness was measured 24 hours prior to croton oil sensitization; this measurement served as a baseline. On sensitization day, the animals were anesthetized using Ketamine and Xylazine formulation. Then, the animals were administered with TI topically. One hour later the animals were introduced to croton oil sensitization (50 μL). Two hours post croton oil sensitization the animals were administered with TI again. Three hours post croton oil sensitization the ear thickness of the animals were measured again.
TIs were administered twice, the first dose was 1 hour prior to croton oil sensitization and the second time was 2 hours post croton oil sensitization. All TIs were dissolved in 10% Ethanol and were applied topically on the surface of the sensitized ear.
Determination of individual body weights of animals was made one day before sensitization phase. A single person was responsible for ear thickness measurement throughout the entire study. The ear thickness of both left and right ears was measured using analogue calipers (Instrumentation 0.01 mm L-01) on 2 occasions: 24 hours prior to croton oil sensitization, and 3 hours post croton oil sensitization.
All data are presented in MEAN±SEM. T-test, two tailed, unpaired was applied to all data. P value was considered significant if p<0.05.
Ear thickness was measured before Croton oil induced ear sensitization (baseline) and 3 hours post ear edema induction. Treatment with various TI was applied topically 1 hour prior to sensitization and 2 hours post induction. The difference in ear thickness of the intact ear was subtracted from the ear thickness measured of the inflamed ear. This value was referred to as ear swelling.

Experiment [2] concerns croton oil induced ear edema. The experiment is described as follows: Croton oil induced ear edema, 6 hours post sensitization (Example 2). The source says:
A study was undertaken in order to evaluate the effect of topical preparations of Hydrocortisone, Betamethasone and PEA at various concentrations (as single agents and in various combinations) on ear edema in mice. […] The difference in ear thickness of the intact ear was subtracted from the ear thickness of the inflamed ear. This value is defined as “ear swelling”.

Experiment [3] has as its system croton oil induced ear edema. Description: Croton oil induced ear edema, 6 and 9 hours post sensitization (Example 3). As to conditions: PEA 1%; for activity in inhibiting ear swelling vs. Vehicle: Betamethasone 4 μg/25 μl per ear; for Mean Left Ear Delta Thickness, Delta + 9 h vs baseline / Mean Left Ear Delta thickness, Delta + 6 h vs baseline / Mean Left Ear Thickness (mm) Day 0 (6 h post sensitization) / Mean Left Ear Thickness (mm) Day 0 (9 h post sensitization): Betamethasone EDmax 4 μg/25 μl per ear; for Mean Left Ear Thickness (mm) Day 0 (6 h post sensitization) / Mean Left Ear Thickness (mm) Day 0 (9 h post sensitization): topical 25 μl per ear prior to sensitization. The protocol:
A study was undertaken in order to determine the effect of topical application of a combined preparation of Betamethasone and PEA on ear edema in mice. Ear thickness was measured before croton oil induced ear swelling and 6 and 9 hours post ear edema induction. […]
The difference in ear thickness of the intact ear was subtracted from the ear thickness of the inflamed ear. This value is defined as “ear swelling”.

[4] abbreviates: steroid alone at ED50: Hydrocortisone 55 μg/25 μl per ear, Betamethasone 1 μg/25 μl per ear.
Where [5] appears, read: steroid alone at EDmax: Hydrocortisone 200 μg/25 μl per ear, Betamethasone 4 μg/25 μl per ear.
[6] abbreviates: topical, steroid alone at calculated ED50: Hydrocortisone 55 μg/25 μl per ear, Betamethasone 1 μg/25 μl per ear.
The mark [7] stands for this setting: topical, steroid alone at calculated EDmax: Hydrocortisone 200 μg/25 μl per ear, Betamethasone 4 μg/25 μl per ear.

Each structure is given as a SMILES string. Values joined by “and” are separate entries in the source; they are usually repeats but may differ in a detail not shown here. Identical values can stand only once. Marks after values point to notes of the source that are not given here.

Regarding `CN(C)CCC=C1c2ccccc2CCc2ccccc21` [Amitriptyline, amitriptyline], in experiment [1], the “% of Ear Thickness Inhibition (inhibition of ear swelling/edema vs Vehicle)” value came to 62% and the “Mean Group Ear Swelling (mm) 3 Hours Post Croton Oil MEAN” value (“Mean Group Ear Swelling” for short) is reported as 0.248* mm.
For the compound `C=C(C)[C@@H]1CCC(C)=C[C@H]1c1c(O)cc(CCCCC)cc1O` [CBD, cannabidiol], in experiment [1], the “ear swelling (difference between the inflamed and intact ear thickness)” value was 0.020±0.010 mm; the “% of Ear Thickness Inhibition (inhibition of ear swelling/edema vs Vehicle)” value is reported as 72%; the “Mean Group Ear Swelling” value is recorded as 0.240* mm.
Regarding `O=C(NCCN1CCOCC1)c1ccc(Cl)cc1` [Moclobimide, moclobemide], in experiment [1], the “% of Ear Thickness Inhibition (inhibition of ear swelling/edema vs Vehicle)” value was 52% and the “Mean Group Ear Swelling” value was determined as 0.265 mm.
Turning to `CCCCCCCCCCCCCCCC(=O)NCCO` [PEA, N-(2-hydroxyethyl)hexadecanamide], the “Mean Left Ear Delta thickness, Delta + 6 h vs baseline” value in experiment [2] (PEA 0.5% (alone or + Hydrocortisone/Betamethasone ED50)) is recorded as 0.135; in experiment [2] (PEA 1% (alone or + Hydrocortisone/Betamethasone ED50)), 0.031*; in experiment [2] (PEA 5% (alone or + Hydrocortisone/Betamethasone ED50)), 0.062; in experiment [3], 0.056*. Also, the “reducing ear thickness vs. Vehicle” value in experiment [2] (PEA 1% topical, 6 hours post sensitization) is given as “approximately 50%”. Further, the “Left Ear Thickness (mm) Study Day 0 (6 H post sensitization)” value was 0.38 mm in experiment [2] (topical 25 μl per ear 0.5 hour prior to sensitization, PEA 0.5% (alone or + Hydrocortisone 55 μg/25 μl or Betamethasone 1 μg/25 μl, ED50)); 0.29±0.004 mm and 0.29 ** mm in experiment [2] (topical 25 μl per ear 0.5 hour prior to sensitization, PEA 1% (alone or + Hydrocortisone 55 μg/25 μl or Betamethasone 1 μg/25 μl, ED50)); 0.32 mm in experiment [2] (topical 25 μl per ear 0.5 hour prior to sensitization, PEA 5% (alone or + Hydrocortisone 55 μg/25 μl or Betamethasone 1 μg/25 μl, ED50)). In addition, the figures for the “activity in inhibiting ear swelling vs. Vehicle” value in experiment [3] (6 hours post sensitization) and in experiment [3] (9 hours post sensitization) were “significant activity” and “not active”, respectively. Besides, the “Mean Left Ear Delta Thickness, Delta + 9 h vs baseline” value in experiment [3] came out at 0.147. Moreover, the “Mean Left Ear Thickness (mm) Day 0 (6 h post sensitization)” value in experiment [3] is 0.30** mm. Moreover, the “Mean Left Ear Thickness (mm) Day 0 (9 h post sensitization)” value in experiment [3] is given as 0.39 mm. Moreover, the “ear swelling (difference between the inflamed and intact ear thickness)” value in experiment [1] came out at 0.035±0.012 mm. Also, in experiment [1], the “% of Ear Thickness Inhibition (inhibition of ear swelling/edema vs Vehicle)” value is 52%. Further, the “Mean Group Ear Swelling” value in experiment [1] is 0.268 mm.
Regarding `C[C@H]1C[C@H]2[C@@H]3CCC4=CC(=O)C=C[C@]4(C)[C@@]3(F)[C@@H](O)C[C@]2(C)[C@@]1(O)C(=O)CO` [Betamethasone, betamethasone], the “Mean Left Ear Delta thickness, Delta + 6 h vs baseline” value is 0.043 in experiment [2] (setting [4]), 0.031* in experiment [2] (setting [5]) and 0.036** in experiment [3]. Moreover, the “Left Ear Thickness (mm) Study Day 0 (6 H post sensitization)” value in experiment [2] (setting [6]) is recorded as 0.30±0.008 mm; in experiment [2] (topical, steroid alone at calculated ED50: Hydrocortisone 55 μg/25 μl per ear, Betamethasone 1 μg/25 μl per ear, listed as Beta.), 0.30 * mm; in experiment [2] (setting [7]), 0.29±0.005 mm; in experiment [2] (topical, steroid alone at calculated EDmax: Hydrocortisone 200 μg/25 μl per ear, Betamethasone 4 μg/25 μl per ear, listed as Beta) it was 0.29 ** mm. Besides, the “activity in inhibiting ear swelling vs. Vehicle” value in experiment [3] (6 hours post sensitization) is reported as “active”; in experiment [3] (9 hours post sensitization) it was “not active”. Moreover, the “Mean Left Ear Delta Thickness, Delta + 9 h vs baseline” value in experiment [3] is given as 0.092#. Further, in experiment [3], the “Mean Left Ear Thickness (mm) Day 0 (6 h post sensitization)” value is listed as 0.27*** mm. In experiment [3], the “Mean Left Ear Thickness (mm) Day 0 (9 h post sensitization)” value came to 0.33 mm.
On to `CC1(C)O[C@@H]2[C@@H](CO[C@@]3(COS(N)(=O)=O)OC(C)(C)O[C@@H]23)O1` [Topiramate, topiramate], for which, in experiment [1], the “% of Ear Thickness Inhibition (inhibition of ear swelling/edema vs Vehicle)” value was found to be 63% and the “Mean Group Ear Swelling” value came to 0.243 mm.
Regarding `C[C@]12CCC(=O)C=C1CC[C@@H]1[C@@H]2[C@@H](O)C[C@@]2(C)[C@H]1CC[C@]2(O)C(=O)CO` [Hydrocortisone, hydrocortisone], the “activity compared to vehicle in reducing ear thickness / ear edema” value in experiment [2] (6 hours post sensitization, Hydrocortisone 55 and 200 μg/25 μl per ear, Betamethasone 1 and 4 μg/25 μl per ear (calculated ED50 and EDmax)) was “not active”. Further, the “Mean Left Ear Delta thickness, Delta + 6 h vs baseline” value in experiment [2] (setting [4]) came to 0.060. In addition, the “Mean Left Ear Delta thickness, Delta + 6 h vs baseline” value in experiment [2] (setting [5]) is on record as 0.054. For the same compound, the “Left Ear Thickness (mm) Study Day 0 (6 H post sensitization)” value in experiment [2] (setting [6]) is recorded as 0.32 mm. Further, the “Left Ear Thickness (mm) Study Day 0 (6 H post sensitization)” value in experiment [2] (setting [7]) is given as 0.31 mm. In experiment [1], the “ear swelling (difference between the inflamed and intact ear thickness)” value is listed as 0.043±0.003 mm; the “% of Ear Thickness Inhibition (inhibition of ear swelling/edema vs Vehicle)” value was found to be 40%; the “Mean Group Ear Swelling” value is 0.243 mm.
